# Experiment: Particle size distribution by static light scattering, storage stability
# Format: physicochemical
# Conditions: 45 mm lens, tap-water
# Procedure: Additionally, the particle size distribution of the original suspoemulsion was determined by static light scattering measurements using a 45 mm lens and tap-water. The stability of the undiluted suspoemulsion as measured by static light scattering measurements was followed over a period of 8 months. The results from the Turbiscan scan measurements were evaluated graphically. […] This implies that the diluted product stays stable under static conditions, like for example in the dosage tank of an automatic injection system.
structure (smiles),measurement,value
"COC(=O)Nc1nc2cc(C(=O)c3ccc(F)cc3)ccc2[nH]1 [Fb powder, flubendazole]","particle size distribution at t = 0, (D[3, 2] in μm)",1.53 μm

# From patent US9040571B2, “Veterinary formulation for administration of a water-insoluble drug to a target animal through a water distribution system” (Elanco Animal Health Ireland Limited, priority 1999, dated 2015)
